Measured values published in patent US20240252488A1 (KOREA RESEARCH INSTITUTE OF CHEMICAL TECHNOLOGY, priority 2020, published 2024).
pKd: −log10 of the molar value.

Tests used:
FADD−/− Jurkat cells = assay: Necroptosis inhibition assay, TNF-α-induced necroptosis (CellTiter-Glo 2.0); type: cell-based, human; details: TNF-α 15 ng/mL; for Necroptosis inhibition assay (Rescue %) 1 μM: compound 1 μM; for Necroptosis inhibition assay (Rescue %) 10 μM: compound 10 μM
Summary of the method: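 Necroptosis induced by 15 ng/mL TNF-α (final) for 20–24 h at 37 °C, after a 30 min room-temperature pretreatment of FADD-deficient Jurkat cells with 0.1, 1 or 10 μM compound. ATP-based luminescence gave viability, from which inhibition rate and cytotoxicity were derived.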

MLKL [1] = target: T1, MLKL (Homo sapiens, UniProt Q8NB16); assay: MLKL degradation assay in HepG2 cell line (western blot); type: cell-based; parameters: endogenous in cells; host or cells: HepG2 or HaCaT; details: cell line not given; for Degradation assay (Degradation %) 1 μM: compound 1 μM; for Degradation assay (Degradation %) 10 μM: compound 10 μM
T1 sequence (Q8NB16 1-471): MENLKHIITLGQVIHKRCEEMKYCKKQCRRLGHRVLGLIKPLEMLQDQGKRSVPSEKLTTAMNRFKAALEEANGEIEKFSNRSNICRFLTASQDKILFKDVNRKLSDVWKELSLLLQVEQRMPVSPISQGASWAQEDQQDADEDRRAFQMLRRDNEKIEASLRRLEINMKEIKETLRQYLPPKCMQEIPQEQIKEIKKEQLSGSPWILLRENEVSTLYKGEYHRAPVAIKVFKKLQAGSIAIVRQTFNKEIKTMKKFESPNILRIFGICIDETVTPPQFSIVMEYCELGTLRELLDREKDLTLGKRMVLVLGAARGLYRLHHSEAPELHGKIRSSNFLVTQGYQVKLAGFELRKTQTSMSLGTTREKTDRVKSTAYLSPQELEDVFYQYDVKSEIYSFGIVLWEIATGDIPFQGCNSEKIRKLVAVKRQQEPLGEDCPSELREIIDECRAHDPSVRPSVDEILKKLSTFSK
Summary of the method: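 Western blot chemiluminescence of MLKL in equal-protein lysates (10-15 μg, BCA-adjusted). Before lysis, HepG2 cells were exposed to 1 or 10 μM (final) test compound for 20-24 h at 37 °C.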

MLKL [2] = target: T1, MLKL; assay: Measurement of binding affinity with MLKL receptor (competitive binding assay, Kd); parameters: made in house; host or cells: HEK 293 cell line (T7 phage in E. coli BL21-derived host is also described)
Summary of the method: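 Competition binding of kinase tagged with DNA for qPCR detection, expressed in HEK 293 cells, against immobilized ligand on beads. Final DMSO 0.9%. Kd derived from kinase amount in eluates measured by qPCR.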

SMILES	Necroptosis inhibition assay (Rescue %) 1 μM (FADD−/− Jurkat cells)	Necroptosis inhibition assay (Rescue %) 10 μM (FADD−/− Jurkat cells)	Degradation assay (Degradation %) 1 μM (MLKL [1])	Degradation assay (Degradation %) 10 μM (MLKL [1])	pKd (MLKL [2])
Nc1ncc(-c2cnn(C3CCN(CC4CCN(C(=O)CNc5ccc6c(c5)C(=O)N(C5CCC(=O)NC5=O)C6=O)CC4)CC3)c2)nc1C(=O)O[C@@H](C(=O)Nc1ccc(F)cc1)c1ccccc1 (stereo partly drawn) [TDH-137, (R)-2-((4-fluorophenyl)amino)-2-oxo-1-phenylethyl 3-amino-6-(1-(1-((1-((2-(2,6-dioxopiperidin-3-yl)-1,3-dioxoisoindolin-5-yl)glycyl)piperidin-4-yl)methyl)piperidin-4-yl)-1H-pyrazol-4-yl)pyrazine-2-carboxylate]	76.05%	63.68%	54.49%	54.94%	8.55
Nc1ncc(-c2cnn(C3CCN(CC4CCN(C(=O)C5CN(c6cccc7c6C(=O)N(C6CCC(=O)NC6=O)C7=O)C5)CC4)CC3)c2)nc1C(=O)O[C@@H](C(=O)Nc1ccc(F)cc1)c1ccccc1 (stereo partly drawn) [TDH-138, (R)-2-((4-fluorophenyl)amino)-2-oxo-1-phenylethyl 3-amino-6-(1-(1-((1-(1-(2-(2,6-dioxopiperidin-3-yl)-1,3-dioxoisoindolin-4-yl)azetidine-3-carbonyl)piperidin-4-yl)methyl)piperidin-4-yl)-1H-pyrazol-4-yl)pyrazine-2-carboxylate]	70.53%	60.57%	40.46%	25.69%	8.38
Nc1ncc(-c2cnn(C3CCN(CCOCCOCCOCCNC(=O)C4CCN(c5cccc6c5C(=O)N(C5CCC(=O)NC5=O)C6=O)CC4)CC3)c2)nc1C(=O)O[C@@H](C(=O)Nc1ccc(F)cc1)c1ccccc1 (stereo partly drawn) [TDH-139, (R)-2-((4-fluorophenyl)amino)-2-oxo-1-phenylethyl 3-amino-6-(1-(1-(1-(1-(2-(2,6-dioxopiperidin-3-yl)-1,3-dioxoisoindolin-4-yl)piperidin-4-yl)-1-oxo-5,8,11-trioxa-2-azatridecan-13-yl)piperidin-4-yl)-1H-pyrazol-4-yl)pyrazine-2-carboxylate]	18.11%	61.89%		78.56%	8.31
Nc1ncc(-c2cnn(C3CCN(CCOCCOCCOCCNC(=O)C4CCN(c5ccc6c(c5)C(=O)N(C5CCC(=O)NC5=O)C6=O)CC4)CC3)c2)nc1C(=O)O[C@@H](C(=O)Nc1ccc(F)cc1)c1ccccc1 (stereo partly drawn) [TDH-140, (R)-2-((4-fluorophenyl)amino)-2-oxo-1-phenylethyl 3-amino-6-(1-(1-(1-(1-(2-(2,6-dioxopiperidin-3-yl)-1,3-dioxoisoindolin-5-yl)piperidin-4-yl)-1-oxo-5,8,11-trioxa-2-azatridecan-13-yl)piperidin-4-yl)-1H-pyrazol-4-yl)pyrazine-2-carboxylate]	21.32%	81.41%	41.81%	83.53%	8.04
Nc1ncc(-c2cnn(C3CCN(CCOCCOCCOCCNC(=O)C4CN(c5cccc6c5C(=O)N(C5CCC(=O)NC5=O)C6=O)C4)CC3)c2)nc1C(=O)O[C@@H](C(=O)Nc1ccc(F)cc1)c1ccccc1 (stereo partly drawn) [TDH-141, (R)-2-((4-fluorophenyl)amino)-2-oxo-1-phenylethyl 3-amino-6-(1-(1-(1-(1-(2-(2,6-dioxopiperidin-3-yl)-1,3-dioxoisoindolin-4-yl)azetidin-3-yl)-1-oxo-5,8,11-trioxa-2-azatridecan-13-yl)piperidin-4-yl)-1H-pyrazol-4-yl)pyrazine-2-carboxylate]	2.72%	10.22%	17.47%	58.93%	8.09
Nc1ncc(-c2cnn(C3CCN(CCOCCOCCOCCNC(=O)C4CN(c5ccc6c(c5)C(=O)N(C5CCC(=O)NC5=O)C6=O)C4)CC3)c2)nc1C(=O)O[C@@H](C(=O)Nc1ccc(F)cc1)c1ccccc1 (stereo partly drawn) [TDH-142, (R)-2-((4-fluorophenyl)amino)-2-oxo-1-phenylethyl 3-amino-6-(1-(1-(1-(1-(2-(2,6-dioxopiperidin-3-yl)-1,3-dioxoisoindolin-5-yl)azetidin-3-yl)-1-oxo-5,8,11-trioxa-2-azatridecan-13-yl)piperidin-4-yl)-1H-pyrazol-4-yl)pyrazine-2-carboxylate]	12.69%	50.51%	19.42%	53.09%	8.36
Nc1ncc(-c2cnn(C3CCN(CCOCCOCCOCCNC(=O)CNc4cccc5c4C(=O)N(C4CCC(=O)NC4=O)C5=O)CC3)c2)nc1C(=O)O[C@@H](C(=O)Nc1ccc(F)cc1)c1ccccc1 (stereo partly drawn) [TDH-143, (R)-2-((4-fluorophenyl)amino)-2-oxo-1-phenylethyl 3-amino-6-(1-(1-(1-((2-(2,6-dioxopiperidin-3-yl)-1,3-dioxoisoindolin-4-yl)amino)-2-oxo-6,9,12-trioxa-3-azatetradecan-14-yl)piperidin-4-yl)-1H-pyrazol-4-yl)pyrazine-2-carboxylate]	20.58%	64.35%	64%	85.29%	8.35
Nc1ncc(-c2cnn(C3CCN(CCOCCOCCOCCNC(=O)CNc4ccc5c(c4)C(=O)N(C4CCC(=O)NC4=O)C5=O)CC3)c2)nc1C(=O)O[C@@H](C(=O)Nc1ccc(F)cc1)c1ccccc1 (stereo partly drawn) [TDH-144, (R)-2-((4-fluorophenyl)amino)-2-oxo-1-phenylethyl 3-amino-6-(1-(1-(1-((2-(2,6-dioxopiperidin-3-yl)-1,3-dioxoisoindolin-5-yl)amino)-2-oxo-6,9,12-trioxa-3-azatetradecan-14-yl)piperidin-4-yl)-1H-pyrazol-4-yl)pyrazine-2-carboxylate]	15.23%	68.71%	58.79%	86.28%	8.60
Nc1ncc(-c2cnn(C3CCN(CC4CCN(C(=O)C5CN(c6ccc7c(c6)C(=O)N(C6CCC(=O)NC6=O)C7=O)C5)CC4)CC3)c2)nc1C(=O)O[C@@H](C(=O)Nc1ccc(F)cc1)c1ccccc1 (stereo partly drawn) [TDH-145, (R)-2-((4-fluorophenyl)amino)-2-oxo-1-phenylethyl 3-amino-6-(1-(1-((1-(1-(2-(2,6-dioxopiperidin-3-yl)-1,3-dioxoisoindolin-5-yl)azetidine-3-carbonyl)piperidin-4-yl)methyl)piperidin-4-yl)-1H-pyrazol-4-yl)pyrazine-2-carboxylate]	51.47%	40.41%	36.97%	55.66%	8.60
Nc1ncc(-c2cnn(C3CCN(CC4CCN(C(=O)C5CCN(c6cccc7c6C(=O)N(C6CCC(=O)NC6=O)C7=O)CC5)CC4)CC3)c2)nc1C(=O)O[C@@H](C(=O)Nc1ccc(F)cc1)c1ccccc1 (stereo partly drawn) [TDH-146, (R)-2-((4-fluorophenyl)amino)-2-oxo-1-phenylethyl 3-amino-6-(1-(1-((1-(1-(2-(2,6-dioxopiperidin-3-yl)-1,3-dioxoisoindolin-4-yl)piperidine-4-carbonyl)piperidin-4-yl)methyl)piperidin-4-yl)-1H-pyrazol-4-yl)pyrazine-2-carboxylate]	42.2%	9.61%	65.04%	60.65%	8.27
Nc1ncc(-c2cnn(C3CCN(CC4CCN(C(=O)C5CCN(c6ccc7c(c6)C(=O)N(C6CCC(=O)NC6=O)C7=O)CC5)CC4)CC3)c2)nc1C(=O)O[C@@H](C(=O)Nc1ccc(F)cc1)c1ccccc1 (stereo partly drawn) [TDH-147, (R)-2-((4-fluorophenyl)amino)-2-oxo-1-phenylethyl 3-amino-6-(1-(1-((1-(1-(2-(2,6-dioxopiperidin-3-yl)-1,3-dioxoisoindolin-5-yl)piperidine-4-carbonyl)piperidin-4-yl)methyl)piperidin-4-yl)-1H-pyrazol-4-yl)pyrazine-2-carboxylate]	84.3%	45.37%	38.91%	60.57%	7.62
